Key:
C6 cells = assay: Differentiation markers by cell-based ELISA, C6; set-up: species or system rat; settings: 18.8 μM, 24 h
Description: A slightly modified method for cell-based ELISA (cELISA) by Versteeg (Versteed et al., 2000) was used to measure the expression of galactocerebroside, glial fibrilar acidic protein (GFAP), myelin basic protein (MBP), cyclin D3, p53 and p-AKT. Briefly, at the end of cultivation period cells were fixed in 4% paraformaldehyde, endogenous peroxydase was quenched with 1% H2O2 in PBS containing 0.1% Triton X-100 (PBST), and unspecific binding of antibodies blocked with PBST solution containing 10% FCS. Primary mouse monoclonal antibodies specific for rat/mouse p-Akt (1:200; Santa Cruz Biotechnology, Santa Cruz, Calif.), GFAP (1:200, BioYeda, Israel.), galactocerebroside (1:100; Boehringer Mannheim, Mannheim, Germany), MBP (1:100, Boehringer Mannheim, Mannheim, Germany), cyclin D3 (1:750, Santa Cruz Biotechnology, Santa Cruz, Calif.) and p53 (1:250, Santa Cruz Biotechnology, Santa Cruz, Calif.) were applied in PBST supplemented with 2% bovine serum albumin (PBSTB), followed by secondary peroxidase-conjugated goat anti-mouse IgG (1:2500 in PBSTB; GE Healthcare UK) for anti-GFAP and galactocerebroside or anti-rabbit IgG (1:2500, Healthcare UK) for anti-p-Akt, anti-cyclin D3 and anti-p53. All incubations were performed at 37° C. for 1 h. The absorbance at 450 nm was measured in an automated microplate reader 15 min after incubation with peroxydase substrate TMB and subsequently to addition of 0.1 M HCl. To facilitate comparison between treatments, the obtained absorbances were corrected for the cell number that was determined by crystal violet staining, as described in the original protocol. The results are presented as relative expression in comparison with the control value.
(§1) FIG. 5. […] Cell morphology was assessed by light microscopy (A). Markers of cell differentiation of C6 and B16 cells, galactocerebroside, GFAP and MBP were determined by cELISA and melanin and tyrosinase activity were determined as described in material and methods (B). Cyclin D3 and p53 expression were evaluated by cELISA (C, upper panels), immunocytochemistry (C, middle panel) and Western blot (C, lower panel). The results were presented as mean±SD from three independent experiments. *p<0.05, refers to untreated cultures.

B16 cells = assay: Melanin determination, B16; type: cell-based, mouse; settings: 18.8 μM, 24 h
Procedure: Tyrosinase activity was determined by measuring the rate of oxidation of L-DOPA^34. Briefly, sub-confluent cultures in 6-well plate were lysed in 100 μl phosphate buffer pH 6.8-1% Triton X-100 and than centrifuged at 10000 rpm for 5 min. 40 μl of each extract was mixed with 100 μl of L-DOPA substrate solution (2 mg/ml). Enzymatic reaction was carried out at 37° C. and the absorbance at 570 nm was read every 10 min for at least 1 h. The final activity was corrected by the total amount of protein estimated by Bradford assay. For melanin determination cells were incubated in 6 well plate for 24 h, trypsinized, counted and than lysed in 100 μl of 1M NaOH. 400 μl of distilled water was added and samples were incubated at 60° C. for 1 h. Thereafter, absorbance of dissolved dye was measured at 492 nm.
as §1

[1] = tested on: transformed human (HeLa, BT20, HCC 1419, PC-3) and rodent (C6, B16) cell lines; assay: Cell viability by crystal violet assay, tumor cell line panel; type: cell-based, rat, mouse; settings: 24 h
Description: Rat glioma C6 and human glioblastoma U251 cell lines were a kind gift from Dr. Pedro Tranque (Universidad de Castilla-La Mancha, Albacete, Spain), murine melanoma B 16, and human adenocarcinoma HeLa, were a kind gift from Dr. Sinisa Radulovic (Institute for Oncology and Radiology of Serbia, Belgrade, Serbia) while mouse fibrosarcoma L929 was obtained from the European Collection of Animal Cell Cultures (Salisbury, UK). Human breast HCC1419 and prostate PC-3 cells were purchased from LGC Promochem srl (Venezia, Italy). Primary mouse fibroblasts and rat astrocytes were prepared as described (Mijatovic et al. 2004). Cells were grown in HEPES-buffered RPMI 1640 medium supplemented with 5% FCS, 2 mM glutamine, 0.01% sodium pyruvate, 5×10^−5 M 2-mercaptoethanol, and antibiotics (culture medium) at 37° C. in a humidified atmosphere with 5% CO2. After the conventional trypsinization procedure cells were seeded at 1×10^4/well in 96-well, 2×10^5/well in 6-well plate or 3×10^4/well in 4-well chamber slide, cultivated overnight, and then exposed to drug. […]
Reduction of 3-4,5-dimethylthiazol-2-yl)-2,5-diphenyltetrazolium bromide (MTT) to formazan depends on mitochondrial activity of cultured cells, absorption of crystal violet dye correlates with the number of adherent, live cells, while the release of cytosolic lactate dehydrogenase (LDH) indicates the disruption of membrane integrity caracteristic for necrotic cells. […] Mitohondrial-dependent production of formazan and intensity of absorbed crystal violet by adherent cells were assessed by an automated microplate reader at 570 nm, while the pyruvate-mediated conversion of 2,4-dinitrophenylhydrazine into visible hydrazone precipitate in LDH assay was measured at 492 nm. The % of cytotoxicity as indicated by LDH release was calculated as: (E−C)/(T−C)×100, where E is the experimental absorbance of cell cultures, C is the control absorbance of cell-free culture medium, and T is the absorbance corresponding to the maximal (100%) LDH release of Triton-lysed cells.
FIG. 2. […] Cell viability was then evaluated by CV test. […]

Row | Structure (SMILES) | expression of GFAP (C6 cells) | expression of galactocerebroside (C6 cells) | melanin content (B16 cells) | anti-tumor potential (viability of tumor cell lines) [1] | IC50 value relative to the parent drug ([1]; tumor cell lines)
1 | CC(C)(C)NC(=O)[C@@H]1C[C@@H]2CCCC[C@@H]2CN1C[C@@H](O)[C@H](Cc1ccccc1)NC(=O)[C@H](CC(N)=O)NC(=O)c1ccc2ccccc2n1 [Saq, Saquinavir, reference compound] | decreased or unchanged | strongly up regulated | increased | strong anti-tumor potential | 
2 | CC(C)(C)NC(=O)[C@@H]1C[C@@H]2CCCC[C@@H]2CN1C[C@@H](O[N+](=O)[O-])[C@H](Cc1ccccc1)NC(=O)[C@H](CC(N)=O)NC(=O)c1ccc2ccccc2n1 [Saq-NO2, nitric ester of Saquinavir] | decreased or unchanged | strongly up regulated | unchanged | strong anti-tumor potential | two to four fold lower
